Data as given in PMC11022729 (Advanced Science, 2024).

Experiments:
mice [1] = assay: Observation of mouse behavior / signs of toxicity after systemic administration; format: in vivo
Description: To prepare for in vivo studies, we investigated the pharmacokinetic properties of compound 6. […] For comparison, we determined the plasma and brain loxapine levels. […] Collectively, the pharmacological and pharmacokinetic profiles of compound 6 make it an excellent molecule for in vivo pharmacodynamic studies.
With regard to the safety profile, it should be considered that Slack is expressed in various neuronal populations in the CNS, and gain‐of‐function mutations of KCNT1 have been associated with epileptic encephalopathies in humans.^[ [46] ^] Limited information exists concerning the incidence of seizures during loxapine treatment. […] However, the epileptogenic potential of brain‐penetrant Slack activators such as compound 6 should be carefully assessed in the future.

mice [2] = assay: β-alanine-induced itch behavior; format: in vivo, mouse; settings: i.p.
Description: Chloroquine‐induced scratching in mice is driven by MrgprA3 activation in the NP2 population of sensory neurons.^[ [10], [29] ^] To further explore the antipruritic efficacy of compound 6 in histamine‐independent itch, we assessed the behavioral response after s.c. injection of the peptide Ser‐Leu‐Ile‐Gly‐Arg‐Leu (SLIGRL) that evokes scratching by activation of MrgprC11,^[ [30] ^] which is expressed in the NP2 and NP3 population.^[ [10] ^] […] Moreover, compound 6 ameliorated histamine‐independent itch evoked by s.c. injection of β‐alanine that activates MrgprD^[ [31] ^] in the NP1 population of sensory neurons^[ [10] ^] (Figure 3F). In contrast, scratching induced by subcutaneous histamine was not affected by compound 6 (Figure 3G). The lack of an effect on histamine‐evoked scratching was supported by the low affinity of compound 6 for histamine H1 receptors, which was determined using a [^3H]‐pyrilamine competition binding assay in vitro (Table S3, Supporting Information). […] We also investigated the efficacy of compound 6 after peroral (p.o.) delivery.
Three to four days before the day of the experiment, the fur on the dorsolateral aspect of the neck was shaved under brief isoflurane anesthesia. […] Number of scratching bouts directed toward the nape of the neck was assessed over 30 min by videotaping. […]

O=C(O)COCCN1CCN(C2=Nc3ccccc3Oc3ccc(Cl)cc32)CC1 [Compound 6]
impairment of mouse behavior (mice [1]; 10 mg kg−1 i.p.): No obvious impairment of mouse behavior
overt signs of seizures (mice [1]; systemic administration, doses up to 30 mg kg−1): did not observe any overt signs of seizures
itch evoked by s.c. injection of β-alanine (mice [2]): ameliorated
